Measurements: patent US20110162981A1, “METHODS AND COMPOSITIONS FOR PREVENTING, REDUCTING OR TREATING DAMAGE CAUSED BY ISCHEMIA AND SCHEMIA-LIKE CONDITIONS” (priority 2008, published 2011)

Tested on: ischemia-induced brain lesion (middle cerebral artery occlusion)
Assay: MCAO/reperfusion stroke model, TTC staining lesion volume
Format: in vivo, Sprague Dawley rats
Conditions: ovariectomized female SD rats, 1 hr MCAO

C[C@]12CC[C@@H]3c4ccc(O)cc4CC[C@H]3[C@@H]1CC[C@@H]2O [17 β-Estradiol, 17-beta estradiol]
Ischemic Lesion Volume (means, mm^3) (24 hours after onset of reperfusion, TTC staining, mean): 147.4 mm^3 | reduction of ischemia-induced brain lesion compared with control rats (24 hours reperfusion, vs control diet rats): 48%
